Test results taken from PubChem BioAssay AID2060359 (Molecular Pharmacology Branch, DTP, NCI, 2025).
Several values for one entry are separate records, joined by “and”; a condition that tells them apart may be missing. Equal entries are not always repeated.

Test system: 276233-004-R-J1-PDC spheroids with HUVEC/MSC, viability
Assay: Anticancer human tumor 276233-004-R-J1-PDC patient-derived colon adenocarcinoma cell line growth inhibition [TAK]
Conditions: for viability, T/C: stronger effect = lower value
Excerpt: Combinatorial screen of targeted agents with TAK-243 and ipatasertib in multi-cell type tumor spheroids
A high-throughput screen of multi-cell type tumor spheroids was designed to identify active combinations of targeted small molecules and TAK-243 or ipatasertib. Complex spheroids include a stromal component modeled by human endothelial cells (HUVEC) and fibroblasts modeled by human mesenchymal stem cells (MSCs). The concentration ranges selected for each drug and investigational agent were based upon clinically achievable concentrations if the clinical Cmax of the agent was known.
Compounds. The drugs and investigational agents: TAK-243 (785004), ipatasertib (767898), everolimus (733504), selumetinib (741078), bortezomib (756655), trametinib (758246), ixazomib (758254), vemurafenib (761431), dabrafenib (764134), sapanisertib (764658), alpelisib (765974), and copanlisib (816437), were obtained from the National Cancer Institute (NCI) Developmental Therapeutics Program Chemical Repository. The FDA-approved anticancer drug set is available from the NCI Developmental Therapeutics Program. […] The stock solutions were prepared in dimethyl sulfoxide (DMSO, Sigma-Aldrich, St. Louis, MO, cat. D2650) at 800-fold the tested concentration and stored at -70 degrees C prior to their use. All drugs and investigational agents were tested over a range starting from a high concentration at or near the clinical Cmax and decreasing in half-log increments. If the clinical Cmax for an agent had not been determined, the highest concentration tested was 10 microM.
NCI60 Cell Culture. NCI60 cell lines were obtained from the NCI Developmental Therapeutics Program Tumor Repository. For each lot of cells, the Repository performed Applied Biosystems AmpFLSTR Identifiler testing with PCR amplification to confirm consistency with the published Identifier STR profile for each cell line. Cells were kept in continuous culture for no more than 20 passages. The optimal seeding densities for each of the cell lines at each time point assessed were determined prior to performing the concentration response studies. Briefly, the NCI60 human tumor lines were grown as monolayers in RPMI 1640 medium supplemented with 10% FBS and 2 mmol/L L-glutamine.
An additional 2 lines were from the NCI60 cell line panel including melanomas, MALME-3M and SK-MEL-2. Pooled donor human umbilical vein endothelial cells (HUVEC, Lonza, cat. CC-2519) and human mesenchymal stem cells (hMSC, Lonza, cat. PT-2501) were purchased from Lonza (Walkersville, MD).
PDMR cell lines were grown in complete medium (DC medium): Dulbecco's modified Eagle's medium (DMEM)/F12 supplemented with 5% fetal bovine serum (FBS), 2 mM L-glutamine, 100 U/mL penicillin and 100 µg/ml streptomycin, 0.4 µg/ml hydrocortisone, 10 ng/ml epidermal growth factor (EGF) recombinant human protein, 24 µg/mL adenine, and 0.1 mg/mL primocin. During culture from frozen stock vials, PDMR cells were cultured in the same medium containing 10 µM Y-27632 (see Table 3). The PDCs were cultured in complete DMEM/F12 media without 10 microM Y-27632 dihydrochloride for at least two passages prior to the screen. The pooled donor HUVEC and hMSC were cultured in endothelial cell growth medium 2 (PromoCell, Heidelberg, Germany, cat. C-22011) and mesenchymal stem cell growth medium 2 (PromoCell, cat. C-28009), respectively. For all experiments, HUVEC and hMSC were used at passages </=5.
For the pre-screen, cell seeding densities were determined from a titration spanning the range from 5,000 to 313 cells per well. The mct-spheroids including 60% malignant cells, 25% HUVEC and 15% MSC dispensed as a mixture into U-bottom Ultra-Low Attachment 384-well plates (Corning, NY)
High-throughput Drug Combination Screening.
Prior to their inoculation into 384-well plates, malignant cells, HUVEC, and hMSC were removed from T flasks using TrypLE express (Thermo Fisher Scientific, cat. 12605036) and harvested by centrifugation for 5 min at 233 x g. […]

[1] = curve of first compound, second compound 0.3 µM
[2] = curve of first compound, second compound 0.949 µM
[3] = curve of first compound, second compound 3 µM
[4] = curve of first compound, second compound 9.49 µM
[5] = curve of first compound, second compound 30 µM
[6] = second compound 0.3 µM, first compound 0.000316 µM
[7] = second compound 0.3 µM, first compound 0.001 µM
[8] = second compound 0.3 µM, first compound 0.00316 µM
[9] = second compound 0.3 µM, first compound 0.01 µM
[10] = second compound 0.949 µM, first compound 0.000316 µM
[11] = second compound 0.949 µM, first compound 0.001 µM
[12] = second compound 0.949 µM, first compound 0.00316 µM
[13] = second compound 0.949 µM, first compound 0.01 µM
[14] = second compound 3 µM, first compound 0.000316 µM
[15] = second compound 3 µM, first compound 0.001 µM
[16] = second compound 3 µM, first compound 0.00316 µM
[17] = second compound 3 µM, first compound 0.01 µM
[18] = second compound 9.49 µM, first compound 0.000316 µM
[19] = second compound 9.49 µM, first compound 0.001 µM
[20] = second compound 9.49 µM, first compound 0.00316 µM
[21] = second compound 9.49 µM, first compound 0.01 µM
[22] = second compound 30 µM, first compound 0.000316 µM
[23] = second compound 30 µM, first compound 0.001 µM
[24] = second compound 30 µM, first compound 0.00316 µM
[25] = second compound 30 µM, first compound 0.01 µM
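Note: spheroids exposed to drugs for seven days before the viability read.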

CC(C)CC(NC(=O)C(Cc1ccccc1)NC(=O)c1cnccn1)B(O)O (stereo unspecified) + CC(C)NCC(C(=O)N1CCN(c2ncnc3c2C(C)CC3O)CC1)c1ccc(Cl)cc1
IC50 [1]: 6.01 nM
IC50 [2]: 5.35 nM
IC50 [3]: 3.83 nM
IC50 [4]: 4.36 nM
IC50 [5]: 1.38 nM
viability, T/C (second compound 0.3 µM, first compound 31.6 pM): 103%
viability, T/C (second compound 0.3 µM, first compound 0.0001 µM): 100%
viability, T/C [6]: 109%
viability, T/C [7]: 109%
viability, T/C [8]: 104%
viability, T/C [9]: 6.95%
viability, T/C (second compound 0.949 µM, first compound 31.6 pM): 105%
viability, T/C (second compound 0.949 µM, first compound 0.0001 µM): 106%
viability, T/C [10]: 147%
viability, T/C [11]: 96.8%
viability, T/C [12]: 82.9%
viability, T/C [13]: 13%
viability, T/C (second compound 3 µM, first compound 31.6 pM): 73.4%
viability, T/C (second compound 3 µM, first compound 0.0001 µM): 79.4%
viability, T/C [14]: 81.7%
viability, T/C [15]: 80.3%
viability, T/C [16]: 59.1%
viability, T/C [17]: 4.72%
viability, T/C (second compound 9.49 µM, first compound 31.6 pM): 61%
viability, T/C (second compound 9.49 µM, first compound 0.0001 µM): 80.3%
viability, T/C [18]: 73.4%
viability, T/C [19]: 66%
viability, T/C [20]: 67.7%
viability, T/C [21]: 4.19%
viability, T/C (second compound 30 µM, first compound 31.6 pM): 56%
viability, T/C (second compound 30 µM, first compound 0.0001 µM): 53.2%
viability, T/C [22]: 55.3%
viability, T/C [23]: 61.4%
viability, T/C [24]: 33.3%
viability, T/C [25]: 20.5%

CC(=O)Nc1cccc(-n2c(=O)n(C3CC3)c(=O)c3c(Nc4ccc(I)cc4F)n(C)c(=O)c(C)c32)c1
viability, T/C (compound 94.9 pM): 92.8% and 120%
viability, T/C (compound 0.0003 µM): 81.6% and 81.1%
viability, T/C (compound 0.000949 µM): 88.4% and 73.1%
viability, T/C (compound 0.003 µM): 70.1% and 70%
viability, T/C (compound 0.00949 µM): 61.6% and 54.3%
viability, T/C (compound 0.03 µM): 37.1% and 44.9%
IC50 (curve of compound): 15.7 nM and 29.7 nM

Cc1nc(NC(=O)N2CCCC2C(N)=O)sc1-c1ccnc(C(C)(C)C(F)(F)F)c1 (stereo unspecified)
viability, T/C (compound 0.0316 µM): 100% and 88.8%
viability, T/C (compound 0.1 µM): 89.7% and 95.4%
viability, T/C (compound 0.316 µM): 80% and 70.7%
viability, T/C (compound 1 µM): 61.8% and 64.2%
viability, T/C (compound 3.16 µM): 64% and 56.8%
viability, T/C (compound 10 µM): 42.8% and 50.4%
IC50 (curve of compound): 6270 nM and > 10000 nM

CC(C)n1nc(-c2ccc3oc(N)nc3c2)c2c(N)ncnc21
viability, T/C (compound 0.000316 µM): 104% and 103%
viability, T/C (compound 0.001 µM): 116% and 96.9%
viability, T/C (compound 0.00316 µM): 90.4% and 95.4%
viability, T/C (compound 0.01 µM): 76.1% and 71.7%
viability, T/C (compound 0.0316 µM): 82.8% and 66.4%
viability, T/C (compound 0.1 µM): 62% and 57.5%
IC50 (curve of compound): > 100 nM

Cn1cnc2c(F)c(Nc3ccc(Br)cc3Cl)c(C(=O)NOCCO)cc21
viability, T/C (compound 0.00949 µM): 83.5% and 81.4%
viability, T/C (compound 0.03 µM): 81.7% and 79.9%
viability, T/C (compound 0.0949 µM): 62.3% and 70.2%
viability, T/C (compound 0.3 µM): 70.4% and 70.3%
viability, T/C (compound 0.949 µM): 57% and 62.4%
viability, T/C (compound 3 µM): 45.9% and 44.9%
IC50 (curve of compound): 2100 nM and 2190 nM

COc1c(OCCCN2CCOCC2)ccc2c3n(c(=NC(=O)c4cnc(N)nc4)nc12)CCN3
viability, T/C (compound 0.00316 µM): 82.5% and 97.5%
viability, T/C (compound 0.01 µM): 64.3% and 80.6%
viability, T/C (compound 0.0316 µM): 55.6% and 59.9%
viability, T/C (compound 0.1 µM): 50.8% and 57.9%
viability, T/C (compound 0.316 µM): 43.1% and 47.6%
viability, T/C (compound 1 µM): 47.2% and 63.4%

COC1CC2CCC(C)C(O)(O2)C(=O)C(=O)N2CCCCC2C(=O)OC(C(C)CC2CCC(OCCO)C(OC)C2)CC(=O)C(C)C=C(C)C(O)C(OC)C(=O)C(C)CC(C)C=CC=CC=C1C (stereo unspecified) + CC(C)NCC(C(=O)N1CCN(c2ncnc3c2C(C)CC3O)CC1)c1ccc(Cl)cc1
IC50 [1]: > 100 nM
IC50 [2]: > 100 nM
IC50 [3]: > 100 nM
IC50 [4]: > 100 nM
IC50 [5]: > 100 nM
viability, T/C [6]: 126%
viability, T/C [7]: 81.9%
viability, T/C [8]: 75.9%
viability, T/C [9]: 79.3%
viability, T/C (second compound 0.3 µM, first compound 0.0316 µM): 67.5%
viability, T/C (second compound 0.3 µM, first compound 0.1 µM): 71.3%
viability, T/C [10]: 74.3%
viability, T/C [11]: 93.3%
viability, T/C [12]: 81.9%
viability, T/C [13]: 70.5%
viability, T/C (second compound 0.949 µM, first compound 0.0316 µM): 68.3%
viability, T/C (second compound 0.949 µM, first compound 0.1 µM): 58.4%
viability, T/C [14]: 72.3%
viability, T/C [15]: 65.5%
viability, T/C [16]: 57.4%
viability, T/C [17]: 68.2%
viability, T/C (second compound 3 µM, first compound 0.0316 µM): 54.9%
viability, T/C (second compound 3 µM, first compound 0.1 µM): 57.9%
viability, T/C [18]: 55.9%
viability, T/C [19]: 57.3%
viability, T/C [20]: 49.1%
viability, T/C [21]: 53.6%
viability, T/C (second compound 9.49 µM, first compound 0.0316 µM): 51.4%
viability, T/C (second compound 9.49 µM, first compound 0.1 µM): 54.1%
viability, T/C [22]: 53.8%
viability, T/C [23]: 61%
viability, T/C [24]: 48.2%
viability, T/C [25]: 54.2%
viability, T/C (second compound 30 µM, first compound 0.0316 µM): 59%
viability, T/C (second compound 30 µM, first compound 0.1 µM): 51.7%

CC(C)(C)c1nc(-c2cccc(NS(=O)(=O)c3c(F)cccc3F)c2F)c(-c2ccnc(N)n2)s1
viability, T/C (compound 0.0316 µM): 93.4% and 107%
viability, T/C (compound 0.1 µM): 86.3% and 116%
viability, T/C (compound 0.316 µM): 113% and 106%
viability, T/C (compound 1 µM): 86.4% and 100%
viability, T/C (compound 3.16 µM): 77.2% and 58.5%
viability, T/C (compound 10 µM): 84.5% and 86.9%
IC50 (curve of compound): > 10000 nM
